Assays:
[1] = test system: thrombomodulin activity (EA.hy926 endothelial cells); test: Protein C activation assay (thrombomodulin activity); assay type: cell-based, human; set-up: concentration dependence of cell surface thrombomodulin activity: dose or concentration left out as unconfirmed; settings: for effect of nitric oxide donors on thrombomodulin activity: 10 mM; for Activity (thrombomodulin, protein C activation): same treatments, mean ± SEM, method gives OD slope; for influence of enzyme inhibitors on thrombomodulin activity: data not shown
Procedure: (§1) TM activity was assessed by measuring protein C activation in early confluent cells grown on 96-well plates. Cells were washed twice with PBS and incubated with […] protein C and 1 nM thrombin (60 min at 37° C., […] total volume) to generate activated protein C. Excess thrombin was quenched with hirudin ([…], 0.2 ATu/ml). The amount of activated protein C generated was measured by monitoring hydrolysis of chromogenic substrate S-2366 at 5-min intervals at 405 nm in a microplate reader (Bio-TEK Instruments, Winooski, Vt.). The results were expressed as mean OD slope values (DOD/Dt).
The functional activity of thrombomodulin was assessed by measuring the ability of the endothelial cells to activate protein C. All samples and reagents were diluted in APC assay diluent (20 mM Tri-HCl, pH7.4, 100 mM NaCl, 2.5 mM CaCl2, 0.5% BSA). Exponentially growing EA.hy 926 endothelial cells were seeded into 96 well plates in triplicate (2×10^4 per well). Cells were allowed to attach and grow overnight, and then washed twice with PBS and incubated for 60 min in 60 μl total volume at 37° C. with 0.5 μM protein C and 1 nM thrombin to generate activated protein C. Excess thrombin was blocked with a superstoichiometric amount of hirudin (20 μl, 0.16 U/μl, 570 nM). Generation of active protein C was determined by using a chromogenic substrate S-2366 and absorbance at 405 nm was measured by using a Vmax kinetic microplate reader.

[2] = test system: endothelial cell thrombomodulin (EA.hy926 endothelial cells); test: Thrombomodulin expression and activity overall (mRNA, protein, surface antigen, activity); assay type: cell-based, human; set-up: blocking of atorvastatin-induced thrombomodulin upregulation: dose or concentration left out as unconfirmed; settings: for blocking of atorvastatin-induced thrombomodulin upregulation: 30 min pre-incubation
Procedure: (§2) Steady-state TM mRNA levels were measured using quantitative real-time RT-PCR (Dr. G. Shipley, Quantitative Genomics Core Laboratory, University of Texas Health Science Center, Houston, Tex.). Human thrombomodulin and b-actin fluorogenic oligonucleotide probes and primers were designed from Genbank sequences, using Primer Express software (Applied Biosystems, Foster City, Calif.) and synthesized by Biosource International (Camarillo, Calif.). Total RNA was extracted using TRIZOL Reagent (Invitrogen, Carlsbad, Calif.) and the RNA samples were treated with RNAse-free DNAse I (Promega, Madison, Wis.). cDNA was synthesized from total RNA in 10 μl total volume, consisting of 6 μl RT master mix (Invitrogen, Carlsbad, Calif.) and a 4-μl RNA sample (30 ng/μl), using a thermocycler (MJR, Waltham, Mass.) for 30 minutes at 50° C. followed by 72° C. for 10 min. Samples were measured in triplicate. An assay-specific sDNA standard spanning a 5-log range and appropriate controls were included. Forty ml of a PCR master mix was pipetted directly onto each well of the cDNA plate utilizing a Biomek 2000 robotic workstation (Beckman, Fullerton, Calif.), and amplified (95° C. for 1 min; 40 cycles of 95° C. for 12 sec, and 60° C. for 1 min) using the 7700 Sequence Detector (Applied Biosystems). The data were normalized to b-actin and presented as molecules of TM transcript/molecules of b-actin transcript×100 (% b-actin).
(§3) Cells were harvested with trypsin/EDTA and lysed in lysis buffer (10 mM Tris, pH7.4, 150 mM NaCl, 1 mM EDTA, IGPAL CA630, 1 mM PMSF). Protein concentration was measured with the BCA assay (Pierce, Rockford, Ill.). Proteins (20 μg/per lane) were resolved by NuPAGE 4-10% Bis-tris gel electrophoresis (Invitrogen, Carlsbad, Calif.) and electrotransferred onto nitrocellulose membranes. Membranes were probed with primary mouse anti-human thrombomodulin antibody (American Diagnostica), followed by application of a secondary horseradish peroxidase-conjugated (HRP) anti-mouse IgG antibody (American Diagnostica). A mouse anti-human b-actin antibody (either from Sigma or Santa Cruz Biotechnology) was used for protein loading control. HRP signals were detected with an enhanced chemiluminescence (ECL) detection system (Amersham Pharmacia Biotech). Band densities were determined from X-Ray film using SigmaGel software (Jandel Scientific, San Rafael, Calif.).
(§4) Cells were examined for surface antigen expression by flow cytometry, using specific phycoerythrin-conjugated mouse antibodies against human TM (CD-141), a general endothelial cell marker (PECAM [CD-31]), and markers of stimulated endothelial cells (tissue factor [CD-142] and P-selectin [CD-62]) (BD Biosciences, San Diego, Calif.). Cell viability was assessed using 7-amino-actinomycin D (7-AAD). Phycoerythrin-conjugated mouse IgG was used as negative control. A total of 1×10^5 cells were used for each analysis. Cells were harvested, stained with appropriate phycoerythin-conjugated antibodies, fixed in 1% paraformaldehyde, and analysis was performed using a FACSCalibur Flow Cytometer (BD Immunocytometry System, San Jose, Calif.), QuantiBRITE-PE beads (BD Biosciences, San Diego, Calif.), and CELLQuest software. Antigen levels were expressed as antibody binding sites (ABS).
as §1
Statins, by inhibiting HMG-CoA reductase, reduce the formation of mevalonate (FIG. 7). […]

[3] = test system: thrombomodulin mRNA (EA.hy926 endothelial cells); test: Fluorogenic probe RT-PCR, steady-state thrombomodulin mRNA; assay type: cell-based, human; set-up: concentration dependence of thrombomodulin mRNA: dose or concentration left out as unconfirmed; settings: for mRNA (thrombomodulin): FPP 10 μM, squalene 100 μM, GGPP 10 μM, atorvastatin 10 μM, intermediates 30 min before 24-hour atorvastatin, mean ± SEM, method gives % b-actin; for increase in thrombomodulin transcript: 10 mM atorvastatin
Procedure: as §2

[4] = test system: thrombomodulin protein (EA.hy926 endothelial cells); test: Western blotting of thrombomodulin protein in cell lysates; assay type: cell-based, human; settings: for Protein (thrombomodulin): same treatments, untreated control = 100, mean ± SEM
Procedure: as §3
Total thrombomodulin protein in cell lysates was measured by western blotting. EA.hy926 cells were grown to early (90%+) confluence. The cells were washed with 1×PBS twice and lysed by adding 1 ml lysis buffer (10 mM Tris, pH 7.4; 150 mM NaCl; 1 mM EDTA; 1% NP-40 or IGPAL CA630; 1 mM PMSF), and the lysate was collected into eppendorf tubes. Protein concentrations were measured with the BCA protein assay kit (Pierce). Protein aliquots of each sample were mixed with 4× loading buffer, placed in a boiling water bath for 5 min, and subsequently separated by NuPAGE 4-10% Bis-tris gel electrophoresis (Invitrogen Life Technologies). The proteins were transferred to a nitrocellulose membrane, probed with primary monoclonal mouse anti-human thrombomodulin antibody at 1:1000 and secondary anti-mouse IgG-HRP antibody at 1:2000 (American Diagnostica, Inc.) using standard procedures. The HRP signal was detected using ECL detection reagents (Amersham Life Sciences) and visualized on X-ray film.

[5] = test system: cell surface thrombomodulin (EA.hy926 endothelial cells); test: Flow cytometry, cell surface thrombomodulin antigen (CD-141); assay type: cell-based, human; settings: for Antigen (cell surface thrombomodulin): same treatments, mean ± SEM, method gives antibody binding sites
Procedure: as §4

[6] = test system: thrombomodulin activity (human intestinal microvascular cells); test: Protein C activation assay (thrombomodulin activity); assay type: cell-based
Procedure: as §1

[7] = test system: tissue factor (EA.hy926 endothelial cells); test: Tissue factor (CD-142) expression after TNF-a exposure; assay type: cell-based, human; settings: atorvastatin pre-treatment, data not shown
Procedure: as §4
TNF-a potently downregulates endothelial thrombomodulin, an effect that is pathophysiologically significant in sepsis and related disorders. Therefore, the effect of atorvastatin on TNF-a-induced downregulation of endothelial cell thrombomodulin was examined. Exposure of EA.hy926 cells to TNF-a (1-20 ng/ml for 24 hours) caused a dose-dependent increase in apoptosis (4-fold at 10 ng/ml) and tissue factor (2.5-fold) and decreased thrombomodulin by 75% (data not shown). […]

[8] = test system: EA.hy926 endothelial cells; test: Apoptosis after TNF-a exposure; assay type: cell-based, human; settings: atorvastatin pre-treatment, data not shown
Procedure: TNF-a potently downregulates endothelial thrombomodulin, an effect that is pathophysiologically significant in sepsis and related disorders. Therefore, the effect of atorvastatin on TNF-a-induced downregulation of endothelial cell thrombomodulin was examined. Exposure of EA.hy926 cells to TNF-a (1-20 ng/ml for 24 hours) caused a dose-dependent increase in apoptosis (4-fold at 10 ng/ml) and tissue factor (2.5-fold) and decreased thrombomodulin by 75% (data not shown). EA.hy926 cells were pre-treated with atorvastatin (10 μM for 30 min) before exposure to TNF-a (1 or 10 ng/ml, 24 hours).

[9] = 24 hours, atorvastatin 0.1-15 mM
[10] = statin before radiation, normal and irradiated cells, 24 hours after irradiation
[11] = atorvastatin 10 μM for 30 min before TNF-a 1 or 10 ng/ml, 24 hours

Cl.N=c1c[n+](N2CCOCC2)[n-]o1 [SIN-1, 3-Morpholinosydnonimine hydrochloride]
effect of nitric oxide donors on thrombomodulin activity [1]: mimicked the effect of atorvastatin on thrombomodulin activity

CCCN(CCCN)N(O)N=O [PAPA-NONOate, 3-(2-Hydroxy-2-nitroso-1-propylhydrazino)-1-propanamine]
effect of nitric oxide donors on thrombomodulin activity [1]: mimicked the effect of atorvastatin on thrombomodulin activity

CC(O)(CCO)CC(=O)O (centres unmarked) [mevalonate, Mevalonate]
inhibition of atorvastatin-induced thrombomodulin upregulation ([2]; 100 mM or 500 mM mevalonate 30 min prior to 24-hour): dose-dependent inhibition
inhibition of atorvastatin-induced thrombomodulin upregulation ([2]; higher mevalonate concentration): virtually complete inhibition

CC(C)=CCC/C(C)=C/CC/C(C)=C/CC/C=C(\C)CC/C=C(\C)CCC=C(C)C [Squalene, squalene]
mRNA (thrombomodulin) [3]: 5.9 ± 1.0
Protein (thrombomodulin) [4]: 147 ± 29
Antigen (cell surface thrombomodulin) [5]: 60.9 ± 1.9
Activity (thrombomodulin, protein C activation) [1]: 2.4 ± 0.6
blocking of atorvastatin-induced thrombomodulin upregulation [2]: ineffective in blocking

CC(C)=CCC/C(C)=C/CC/C(C)=C/CC/C(C)=C/COP(=O)(O)OP(=O)(O)O [GGPP, geranylgeranyl-pyrophosphate]
mRNA (thrombomodulin) [3]: 5.4 ± 0.5
Protein (thrombomodulin) [4]: 124 ± 11
Antigen (cell surface thrombomodulin) [5]: 66.6 ± 5
Activity (thrombomodulin, protein C activation) [1]: 3.0 ± 0.7
blocking of atorvastatin-induced thrombomodulin upregulation [2]: completely blocked

C=C(CC[C@]12O[C@H](C(=O)O)[C@@](O)(C(=O)O)[C@](C(=O)O)(O1)[C@H](OC(=O)/C=C/[C@@H](C)C[C@@H](C)CC)[C@H]2O)[C@@H](OC(C)=O)[C@H](C)Cc1ccccc1 [zaragozic acid, zaragozic acid A]
influence of enzyme inhibitors on thrombomodulin activity [1]: no effect

COC(=O)[C@H](CC(C)C)NC(=O)c1ccc(NC[C@@H](N)CS)cc1-c1cccc2ccccc12 [GGTI-298]
influence of enzyme inhibitors on thrombomodulin activity [1]: increasing thrombomodulin activity

CC(C)c1c(C(=O)Nc2ccccc2)c(-c2ccccc2)c(-c2ccc(F)cc2)n1CC[C@@H](O)C[C@@H](O)CC(=O)O [atorvastatin]
increase in thrombomodulin transcript ([3]; 8 hours): 3 fold
increase in thrombomodulin transcript ([3]; 24 hours): > 10 fold
concentration dependence of thrombomodulin mRNA ([3]; 24 hours): prominent dose-dependent increase
mRNA (thrombomodulin) [3]: 71.7 ± 8.8
increase in thrombomodulin protein ([4]; 10 mM atorvastatin, 24 hours): 2- to 3 fold
concentration dependence of cellular thrombomodulin protein [4, 9]: prominent dose-dependent increase
thrombomodulin protein, Western blot of cell lysates ([4]; irradiated and non-irradiated cells): prominent increase in thrombomodulin protein
Protein (thrombomodulin) [4]: 403 ± 70
increase in cell surface TM antigen ([5]; 10 mM statin, 24 hours): 2- to 3 fold
concentration dependence of cell surface thrombomodulin antigen [5, 9]: prominent dose-dependent increase
Antigen (cell surface thrombomodulin) [5]: 146.2 ± 1.9
thrombomodulin antigen expression compared to control endothelial cells [5, 10]: significantly higher
increase in TM activity (protein C activation) ([1]; 10 mM statin, 24 hours): 2- to 3 fold
thrombomodulin activity in irradiated endothelial cells ([1]; 25 Gy single dose radiation): essentially restored normal thrombomodulin activity
concentration dependence of cell surface thrombomodulin activity ([1]; 24 hours, different concentrations): prominent dose-dependent increase
effect on TNF-a-induced downregulation of thrombomodulin activity [1, 11]: completely counteracted
Activity (thrombomodulin, protein C activation) [1]: 4.1 ± 0.3
thrombomodulin activity compared to control endothelial cells [1, 10]: significantly higher
endothelial thrombomodulin activity (protein C activation assay) [6]: significantly affected
levels of thrombomodulin gene expression, protein and surface expression under TNF-a [2, 11]: significantly above those of untreated control cells
effect on TNF-a-induced tissue factor expression [7]: did not affect
effect on TNF-a-induced apoptosis [8]: did not affect

CC1(C)N([O])C(c2ccccc2)=[N+]([O-])C1(C)C [PTIO, 2-Phenyl-4,4,5,5-tetramethylimidazoline-1-oxyl 3-oxide]
effect of NO scavenger on atorvastatin-induced increase in thrombomodulin activity ([1]; pre-incubation with 100 mM): inhibited the atorvastatin-induced increase in thrombomodulin activity

CC(C)=CCC/C(C)=C/CC/C(C)=C/COP(=O)(O)OP(=O)(O)O [FPP, farnesyl-pyrophosphate]
mRNA (thrombomodulin) [3]: 8.2 ± 1.9
Protein (thrombomodulin) [4]: 94 ± 9
Antigen (cell surface thrombomodulin) [5]: 74.3 ± 1.1
Activity (thrombomodulin, protein C activation) [1]: 3.6 ± 0.3
blocking of atorvastatin-induced thrombomodulin upregulation [2]: only partially blocked

From patent publication US20100204254A1, “Use of statins in the prevention and treatment of radiation injury and other disorders associated with reduced endothelial thrombomodulin” (The University of Arkansas for Medical Sciences, priority 2002, published 2010)
